Ends that are not written are not given here.
Legend:
[1] = pre-lantibiotic in contrast to nisin; cited from earlier work
Procedure: As an advantage any lantibiotic can be produced as a pre-lantibiotic. […] Normally, we observed yields for the pre-nisin and its variants of 3–6 mg per liter cell culture supernatant after purificatio ...

[2] = system: NisP; test: Leader peptide cleavage of pre-nisin variants by NisP (RP-HPLC); format: biochemical, Lactococcus lactis; conditions: in vitro cleavage of the leader peptide from purified pre-nisin (variant) by purified secreted NisP, overnight at 8 °C, integration of leader peptide peaks
Text: Step IV concerns leader peptide cleavage and thereby activation of the purified pre-nisin variants. Here, we used the secreted variant of the natural leader peptidase NisP, by which the leader peptide is cleaved in vitro and the cleavage efficiency (%) can be calculated as recently shown. We used an RP-HPLC set-up to monitor product formation, in which the appearance of the leader peptide in the chromatograms was used to determine the concentration of activated nisin (Supplementary Fig. S3). […] The nisin core peptide eluted at a later retention time of approximately 23 min (Supplementary Fig. S3). […] However, in the case of the I1 mutants I1A, I1G, I1T, I1S, I1K, I1R, I1H, I1Q, I1E, I1N and I1D) the formation of a core peptide peak in terms of a new and separated peak in the chromatogram was not observed (Supplementary Fig. S4). Rather, the peaks with a retention time between 18–21 min contained both species, the cleaved and non-cleaved lantibiotic, and can therefore not be deconvoluted for proper determination of the amount of activated nisin. […] The concentration was calculated based on a standard calibration curve (Supplementary Fig. S5), where we precisely determined the concentration of the activated nisin or I1 mutants. We used this concentration determination instead of the colorimetric protein concentration determination as for example Bradford or the BCA-assay since the latter two assays cannot differentiate between the activated and non-activated form of the secreted variants. Since nisin is not active unless the leader is cleaved off, the determination of the area of the leader peak to calculate the amount of the activated lantibiotic directly relates to the antimicrobial activity without need to further purify the peptide after cleavage.
All I1 mutations were subjected to NisP cleavage and most of the variants were cleaved, but a strong influence of the nature of the I1 substitutions with respect to cleavage efficiency was observed (Supplementary Fig. S6). The cleavage efficiency for wild type pre-nisin A was 94.3 ± 1.7% but lower for the mutants I1M, I1L, I1A and I1V (72.3 ± 1.4%, 72.4 ± 1.3%, 81.0 ± 1.8% and 58.1± 2.8%, respectively). […] This holds especially in those cases, where the amino acid at position one was exchanged to a charged amino acid (e.g. I1K 9.2 ± 1.3%; I1E 9.5 ± 0.7%) or contained a bulky hydrophobic side chain (e.g. I1F 12.9 ± 0.8%; I1W 5.7 ± 0.2%; I1Y 22.6 ± 2.3%) (Supplementary Fig. S6). […] Even after an extensive prolongation of the incubation time, no leader peptide peak was detected in the RP-HPLC chromatogram (Supplementary Fig. S4). It is important to stress in this context that the cleavage efficiencies cannot be determined from Tricine-SDS gels (20%). Here, the leader peptide as well as the core peptide would co-migrate, which obviously will falsify the staining results.
Pre-nisin and its variants were expressed and purified as previously described[41],[49],[69]. The purity of pre-nisin and its variants was controlled by Tricine-SDS-PAGE (20%)[70]. The activation of all variants was performed by NisP cleavage overnight at 8 °C. Pre-nisin cleavage and its variants was monitored by RP-HPLC[49],[69].
Pre-nisin and the activated nisin variants were analysed by RP-HPLC (Agilent Technologies 1260 Infinity II) with a LiChrospher WP 300 RP-18 end-capped column and an acetonitrile/water solvent system. The cleavage efficiency and the concentration of active lantibiotic was calculated as described previously[49],[69].

| Molecule | pH stability [1] | cleavage efficiency by NisP [2] [%] |
| --- | --- | --- |
| wild type pre-nisin A: leader-containing, fully modified precursor of nisin A, not yet activated by NisP (MSTKDFNLDLVSVSKKDSGASPRITSISLCTPGCKTGALMGCNMKTATCHCSIHVSK; thioether (positions not given here); not fully specified (some residues, bridges); also: fully post-translationally modified, places not given here; UniProt P13068 1-57, looked up) [reference compound] | higher pH stability | 94.3 ± 1.7 |
| C=C(NC(=O)[C@@H](NC(=O)[C@H](Cc1c[nH]cn1)NC(=O)[C@@H](NC(=O)[C@H](CO)NC(=O)[C@@H]1CS[C@@H](C)[C@H]2NC(=O)[C@H](C)NC(=O)[C@H](NC(=O)[C@H](CCCCN)NC(=O)[C@H](CCSC)NC(=O)[C@H](CC(N)=O)NC(=O)[C@@H]3CS[C@@H](C)[C@@H](NC(=O)[C@H](CCCCN)NC(=O)[C@@H]4CS[C@@H](C)[C@@H](NC(=O)[C@@H]5CSC[C@@H](NC(=O)/C(=C/C)NC(=O)[C@H](C)N)C(=O)N[C@@H]([C@@H](C)CC)C(=O)NC(=C)C(=O)N[C@@H](CC(C)C)C(=O)N5)C(=O)N5CCC[C@H]5C(=O)NCC(=O)N4)C(=O)NCC(=O)N[C@@H](C)C(=O)N[C@@H](CC(C)C)C(=O)N[C@@H](CCSC)C(=O)NCC(=O)N3)[C@H](C)SC[C@H](NC2=O)C(=O)N[C@@H](Cc2c[nH]cn2)C(=O)N1)[C@@H](C)CC)C(C)C)C(=O)N[C@@H](CCCCN)C(=O)O [I1A] | – | 81.0 ± 1.8 |
